Key:
[1] = In vitro skin permeation of testosterone from transdermal systems, Franz diffusion cells; conditions: for cumulative amount of testosterone that permeated through the skin: human cadaver skin, receiver 30% NMP
Experimental: An in vitro skin permeation study was conducted using two testosterone transdermal delivery systems.
The backing/active agent-in-adhesive film was then pressed onto the skin with the adhesive side facing the stratum corneum. […] Three diffusion cells were used for each formulation. The receiver solution was 30% N-methyl pyrrolidone (NMP) in 70% DI H2O (v/v). The entire receiver solution was collected and replaced with fresh 30% NMP solution at each time point. The receiver solution collected was analyzed by HPLC to determine the concentration of testosterone. The cumulative amount of testosterone that permeated across the human cadaver skin was calculated using the measured testosterone concentrations in the receiver solutions, and the results were plotted versus time (FIG. 3).

[2] = In vitro skin permeation of diclofenac sodium from transdermal systems, Franz diffusion cells; type: in vitro ADME, human; conditions: for cumulative amount of diclofenac that permeated through the skin: human cadaver skin, 32° C., 24-hour study

Compound | cumulative amount of testosterone that permeated through the skin ([1]; 0.75 g PVPP powder added (Formulation J by Table 5)) | cumulative amount of testosterone permeated relative to absence of the powder ([1]; 0.75 g PVPP powder vs no PVPP powder) | cumulative amount of testosterone that permeated through the skin ([1]; no PVPP powder added (Formulation I by Table 5)) | cumulative amount of diclofenac that permeated through the skin ([2]; PVPP powder added (Formulation B by Table 1)) | cumulative amount of diclofenac permeated relative to absence of the powder ([2]; PVPP powder added vs no PVPP powder) | cumulative amount of diclofenac that permeated through the skin ([2]; PVPP powder in combination with polyethylene oxide (Formulation C by Table 1)) | cumulative amount of diclofenac that permeated through the skin ([2]; no PVPP powder added (Formulation D by Table 1)) | cumulative amount of diclofenac that permeated through the skin ([2]; powdered starch, poly(acrylamide-acrylic acid) sodium salt instead of PVPP (Formulation A by Table 1))
C[C@]12CC[C@H]3[C@@H](CCC4=CC(=O)CC[C@@]43C)[C@@H]1CC[C@@H]2O [testosterone] | 0.70 mg/cm^2 | almost twice | 0.40 mg/cm^2 |  |  |  |  | 
O=C(O)Cc1ccccc1Nc1c(Cl)cccc1Cl [diclofenac, diclofenac sodium] |  |  |  | 2.41 mg/cm^2 | more than five times | 2.05 mg/cm^2 | 0.48 mg/cm^2 | 1.03 mg/cm^2

From patent US20080138390A1, “Transdermal Delivery System For Use With Basic Permeation Enhancers” (priority 2004, published 2008)
